Experimental data: US20060003989A1, “Compositions and methods using acetylcholinesterase (ACE) inhibitors to treat central nervous system (CNS) disorders in mammals” (priority 2002, published 2006)
Values joined by “and” are separate entries in the source; they are usually repeats but may differ in a detail not shown here. Identical values can stand only once. Counter-ions that a name gives are not always drawn.

Experiments:
[1] = system: cholinesterase; conditions: in rats; cited from earlier work
[2] = Solubility test in purified water (concentration by HPLC)
[3] = cited from earlier work
[4] = Intranasal vs oral galantamine PK (plasma) in ferrets
[5] = system: ferrets; experiment: Emetic response assay in ferrets; conditions: observed for 4 hours
Description: • 8 naïve ferrets/dosing group; Nasal versus Oral • Emetic Response Assay • The assay was based on a validated method. Ferrets were monitored and observed for episodes of retching and/or vomiting for 4 hours. • Two formulations dosed: • Emetic Response Assay • The assay was based on a validated method.

[6] = Intranasal vs oral galantamine PK in canine subject (plasma, CSF); conditions: dog, 0.8 mg/kg; for Tmax: plasma
[7] = Rivastigmine intranasal vs oral PK in rats (CSF and plasma); conditions: single intranasal dose
Description: The formulation is administered intranasally or by gastric insertion of a capsule containing the commercial formulation to 12 groups of 6 rats prepped with an indwelling jugular cannula and heparin lock. […] Subsequently, each subject undergoes lumbar puncture with local anaesthesia (xylocalne s.c.), with the retrieval of 50 uL of cerebralspinal fluid (CSF). A paired blood sample from each animal is collected. By assigning groups to different timepoints, the whole PK curve can be assembled. The first CSF sample is collected 5 minutes post dosing and subsequent samples were collected at 20, 50, 75, 100 and 400 minutes.
CSF samples are frozen until analysis.

[8] = system: in vitro epithelial tissue model; experiment: TER in in vitro epithelial tissue model with PN159 and galantamine lactate; type: cell-based; conditions: 25, 50, 100 μM PN159 in the presence of 40 mg/ml galantamine lactate; controls applied apically

## O=C(CCC1CCN(Cc2ccccc2)CC1)c1ccc2c(c1)NCCCC2 [TAK-147, 3-[1-(phenylmethyl)-4-piperidinyl]-1-(2,3,4,5-tetrahydro-1H-1-benzazepin-8-yl)-1-propanone]
[1]
  minimal therapeutic concentration (MTC): 1.1 nmol/gm

## COc1ccc2c3c1O[C@H]1C[C@@H](O)C=C[C@@]31CCN(C)C2.O=C(O)[C@H](O)[C@@H](O)[C@H](O)[C@H](O)CO [galantamine gluconate]
[2]
  solubility in water: ~1390 mM

## COc1ccc2c3c1O[C@H]1C[C@@H](O)C=C[C@@]31CCN(C)C2 [galantamine hydrobromide]
[3]
  generally reported solubility in water: 50 mM
[2]; purified water, thermodynamic from solid
  solubility: ~35000 µg/mL and ~121000 µM

## CC(O)C(=O)O.COc1ccc2c3c1O[C@H]1C[C@@H](O)C=C[C@@]31CCN(C)C2 [galantamine lactate]
[2]
  solubility in water: ~1390 mM

## COc1ccc2c3c1O[C@H]1C[C@@H](O)C=C[C@@]31CCN(C)C2 [galantamine]
[4]; ferret, plasma, other: intranasal compared to oral
  bioavailability: ~70%
[4]; ferrets, intranasal 200 mg/ml formulation vs Reminyl oral solution
  Tmax, plasma, intranasal compared to oral: decreased Tmax
[4]; ferrets, intranasal vs oral
  Cmax, plasma, intranasal compared to oral: about 4 fold
[5]
  incidence of retching / emesis, intranasal vs oral: dramatic reduction in emesis
[6]
  Tmax in CSF, intranasal vs oral: same trend was observed in the CSF
[6]; inhaled or intranasal
  Tmax: ~0.5 h
[6]; po
  Tmax: 2 to 3 h

## CCN(C)C(=O)Oc1cccc([C@H](C)N(C)C)c1 [rivastigmine]
[7]
  rivastigmine concentration in CSF after intranasal administration: peaks at a level higher than therapeutic levels reported for plasma following oral dosage in man

## Nc1c2c(nc3ccccc13)CCCC2 [tacrine]
[1]
  minimal therapeutic concentration (MTC): 3.5 nmol/gm

## triton X
[8]
  effect on TER: did reduce TER
